Key:
Details in all cases: read-out: pA2 (converted)
[1] = target: T1, Beta-1 adrenergic receptor (Cavia porcellus, UniProt B0FL73); test: Competitive antagonist activity at beta-1 adrenergic receptor in guinea pig assessed as inhibition of isoproterenol-induced atrial contractile force; parameters: species or system Cardiac atrium
[2] = target: T1, Beta-1 adrenergic receptor; test: Competitive antagonist activity at beta-1 adrenergic receptor in guinea pig assessed as inhibition of isoproterenol-induced atrial beat rate; parameters: species or system Cardiac atrium
[3] = target: Beta-2 adrenergic receptor (Cavia porcellus, UniProt Q8K4Z4); test: Competitive antagonist activity at beta-2 adrenergic receptor in guinea pig assessed as inhibition of isoproterenol-induced tracheal relaxation
Beta-2 adrenergic receptor, sequence (Q8K4Z4 whole entry): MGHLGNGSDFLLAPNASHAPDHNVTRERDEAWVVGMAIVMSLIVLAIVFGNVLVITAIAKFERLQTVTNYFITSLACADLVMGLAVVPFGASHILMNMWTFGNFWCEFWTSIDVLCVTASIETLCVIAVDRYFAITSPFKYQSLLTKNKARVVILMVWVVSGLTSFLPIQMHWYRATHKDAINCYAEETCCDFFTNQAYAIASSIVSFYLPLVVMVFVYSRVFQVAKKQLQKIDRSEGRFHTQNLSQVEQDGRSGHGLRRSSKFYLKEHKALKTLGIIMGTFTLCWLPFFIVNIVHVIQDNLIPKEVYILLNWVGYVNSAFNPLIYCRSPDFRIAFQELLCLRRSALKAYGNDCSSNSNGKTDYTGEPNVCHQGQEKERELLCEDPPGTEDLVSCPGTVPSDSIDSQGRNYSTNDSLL

T1 sequence (B0FL73 whole entry): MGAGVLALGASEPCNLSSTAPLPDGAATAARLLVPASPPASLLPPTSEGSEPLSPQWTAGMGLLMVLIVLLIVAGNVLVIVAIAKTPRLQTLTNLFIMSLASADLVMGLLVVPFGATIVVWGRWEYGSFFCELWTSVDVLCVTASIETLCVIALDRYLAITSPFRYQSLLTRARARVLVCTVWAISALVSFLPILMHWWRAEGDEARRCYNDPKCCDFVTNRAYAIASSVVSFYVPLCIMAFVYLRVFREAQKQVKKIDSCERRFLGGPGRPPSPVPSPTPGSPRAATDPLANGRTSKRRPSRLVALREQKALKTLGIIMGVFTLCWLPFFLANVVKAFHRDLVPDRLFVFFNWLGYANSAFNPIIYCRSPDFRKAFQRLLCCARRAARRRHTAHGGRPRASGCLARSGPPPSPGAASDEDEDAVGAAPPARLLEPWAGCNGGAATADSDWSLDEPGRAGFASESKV

| Kb [1] | Kb [2] | Kb [3] | SMILES |
| --- | --- | --- | --- |
| 30.9 nM | 39.8 nM | 2.29 nM | CC(C)NCC(O)COc1cccc2[nH]cnc12 (stereo unspecified) |
| 851 nM | 1000 nM | 380 nM | CC(C)NCC(O)COc1ccc2[nH]cnc2c1 (stereo unspecified) |
